In the kinase profiling compilation of Christmann-Franck et al. (2016):

Tests used:
Test in all cases: radiometric filter-binding kinase assay, Kinase HotSpot
ERBB4 (human) = ERBB4 (human) (UniProt Q15303); details: compound 0.5 µM; ATP 10 µM
KIT (human) = KIT (human) (UniProt P10721); details: compound 0.5 µM; ATP 10 µM
PAK3 (human) = PAK3 (human) (UniProt O75914); details: compound 0.5 µM; ATP 10 µM
FGFR3 (human) = FGFR3 (human) (UniProt P22607); details: compound 0.5 µM; ATP 10 µM
CSNK1E (human) = CSNK1E (human) (UniProt P49674); details: compound 0.5 µM; ATP 10 µM
PRKCD (human) = PRKCD (human) (UniProt Q05655); details: compound 0.5 µM; ATP 10 µM
TAOK2 (human) = TAOK2 (human) (UniProt Q9UL54); details: compound 0.5 µM; ATP 10 µM
EPHB4 (human) = EPHB4 (human) (UniProt P54760); details: compound 0.5 µM; ATP 10 µM
ROS1 (human) = ROS1 (human) (UniProt P08922); details: compound 0.5 µM; ATP 10 µM
CDK6 CCND1 (human) = CDK6 CCND1 (human) (UniProt Q00534+P24385); details: compound 0.5 µM
MAPKAPK2 (human) = MAPKAPK2 (human) (UniProt P49137); details: compound 0.5 µM; ATP 10 µM
DDR2 (human) = DDR2 (human) (UniProt Q16832); details: compound 0.5 µM; ATP 10 µM
EPHA1 (human) = EPHA1 (human) (UniProt P21709); details: compound 0.5 µM; ATP 10 µM
CLK3 (human) = CLK3 (human) (UniProt P49761); details: compound 0.5 µM; ATP 10 µM
MAP3K8 (human) = MAP3K8 (human) (UniProt P41279); details: compound 0.5 µM; ATP 10 µM
PHKG2 (human) = PHKG2 (human) (UniProt P15735); details: compound 0.5 µM; ATP 10 µM
NEK3 (human) = NEK3 (human) (UniProt P51956); details: compound 0.5 µM; ATP 10 µM
DYRK2 (human) = DYRK2 (human) (UniProt Q92630); details: compound 0.5 µM; ATP 10 µM
CAMK1G (human) = CAMK1G (human) (UniProt Q96NX5); details: compound 0.5 µM; ATP 10 µM
MST4 (human) = MST4 (human) (UniProt Q9P289); details: compound 0.5 µM; ATP 10 µM
DSTYK (human) = DSTYK (human) (UniProt Q6XUX3); details: compound 0.5 µM; ATP 10 µM
MLTK (human) = MLTK (human) (UniProt Q9NYL2); details: compound 0.5 µM; ATP 10 µM
NLK (human) = NLK (human) (UniProt Q9UBE8); details: compound 0.5 µM; ATP 10 µM
NTRK3 (human) = NTRK3 (human) (UniProt Q16288); details: compound 0.5 µM; ATP 10 µM
MERTK (human) = MERTK (human) (UniProt Q12866); details: compound 0.5 µM; ATP 10 µM
HIPK1 (human) = HIPK1 (human) (UniProt Q86Z02); details: compound 0.5 µM; ATP 10 µM
SYK (human) = SYK (human) (UniProt P43405); details: compound 0.5 µM; ATP 10 µM
PAK6 (human) = PAK6 (human) (UniProt Q9NQU5); details: compound 0.5 µM; ATP 10 µM
CSNK1G1 (human) = CSNK1G1 (human) (UniProt Q9HCP0); details: compound 0.5 µM; ATP 10 µM
PLK1 (human) = PLK1 (human) (UniProt P53350); details: compound 0.5 µM; ATP 10 µM
FGFR4 (human) = FGFR4 (human) (UniProt P22455); details: compound 0.5 µM; ATP 10 µM
NEK11 (human) = NEK11 (human) (UniProt Q8NG66); details: compound 0.5 µM; ATP 10 µM
PNCK (human) = PNCK (human) (UniProt Q6P2M8); details: compound 0.5 µM; ATP 10 µM
MAPK1 (human) = MAPK1 (human) (UniProt P28482); details: compound 0.5 µM; ATP 10 µM
STK11 (human) = STK11 (human) (UniProt Q15831); details: compound 0.5 µM; ATP 10 µM
HIPK3 (human) = HIPK3 (human) (UniProt Q9H422); details: compound 0.5 µM; ATP 10 µM
PRKCE (human) = PRKCE (human) (UniProt Q02156); details: compound 0.5 µM; ATP 10 µM
CSNK2A1 (human) = CSNK2A1 (human) (UniProt P68400); details: compound 0.5 µM; ATP 10 µM
YES1 (human) = YES1 (human) (UniProt P07947); details: compound 0.5 µM; ATP 10 µM
JAK2 JH1 JH2 (human) = JAK2 JH1 JH2 (human) (UniProt O60674); details: compound 0.5 µM; ATP 10 µM
BRSK2 (human) = BRSK2 (human) (UniProt Q8IWQ3); details: compound 0.5 µM; ATP 10 µM
CSNK1D (human) = CSNK1D (human) (UniProt P48730); details: compound 0.5 µM
CSNK1D (human), sequence (P48730 whole entry, looked up): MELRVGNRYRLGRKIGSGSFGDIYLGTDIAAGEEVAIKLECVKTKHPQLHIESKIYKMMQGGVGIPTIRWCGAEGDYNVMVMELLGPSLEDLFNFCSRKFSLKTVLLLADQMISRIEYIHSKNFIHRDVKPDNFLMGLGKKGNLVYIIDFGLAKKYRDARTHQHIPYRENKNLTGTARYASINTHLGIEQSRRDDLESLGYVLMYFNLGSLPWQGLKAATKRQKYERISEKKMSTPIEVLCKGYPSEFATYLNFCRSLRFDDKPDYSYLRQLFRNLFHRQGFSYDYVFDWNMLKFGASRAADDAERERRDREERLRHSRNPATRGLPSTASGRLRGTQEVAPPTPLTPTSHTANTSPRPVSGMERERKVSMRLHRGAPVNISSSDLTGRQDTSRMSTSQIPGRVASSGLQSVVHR

CAMK1G (human), sequence (Q96NX5 whole entry, looked up): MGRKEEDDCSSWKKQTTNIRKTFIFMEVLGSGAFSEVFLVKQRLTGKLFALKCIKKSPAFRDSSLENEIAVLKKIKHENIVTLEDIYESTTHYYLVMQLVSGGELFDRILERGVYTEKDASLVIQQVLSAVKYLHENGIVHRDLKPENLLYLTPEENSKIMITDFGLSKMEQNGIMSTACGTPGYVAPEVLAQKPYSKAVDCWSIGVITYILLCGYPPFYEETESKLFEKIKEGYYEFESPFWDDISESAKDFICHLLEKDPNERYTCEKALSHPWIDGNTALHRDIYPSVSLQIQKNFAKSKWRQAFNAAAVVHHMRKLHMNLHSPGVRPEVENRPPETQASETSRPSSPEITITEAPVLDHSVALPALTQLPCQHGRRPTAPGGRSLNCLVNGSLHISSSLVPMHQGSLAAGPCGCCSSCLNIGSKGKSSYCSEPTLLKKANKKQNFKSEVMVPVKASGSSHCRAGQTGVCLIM
PAK3 (human), sequence (O75914 whole entry, looked up): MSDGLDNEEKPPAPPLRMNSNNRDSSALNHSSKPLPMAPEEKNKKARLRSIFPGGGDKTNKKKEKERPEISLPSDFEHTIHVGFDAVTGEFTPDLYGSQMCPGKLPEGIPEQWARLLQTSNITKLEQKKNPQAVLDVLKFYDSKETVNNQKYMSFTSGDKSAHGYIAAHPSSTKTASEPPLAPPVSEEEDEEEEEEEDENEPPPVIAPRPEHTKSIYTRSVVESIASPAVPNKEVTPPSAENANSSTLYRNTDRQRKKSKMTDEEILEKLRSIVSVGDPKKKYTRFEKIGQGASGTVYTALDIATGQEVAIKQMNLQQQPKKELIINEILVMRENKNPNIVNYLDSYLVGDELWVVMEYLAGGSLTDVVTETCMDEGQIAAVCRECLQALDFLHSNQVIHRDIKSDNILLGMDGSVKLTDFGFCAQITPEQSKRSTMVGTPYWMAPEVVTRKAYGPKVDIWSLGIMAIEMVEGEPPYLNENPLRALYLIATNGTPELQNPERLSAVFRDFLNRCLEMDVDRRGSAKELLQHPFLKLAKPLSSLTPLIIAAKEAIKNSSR
CSNK1E (human), sequence (P49674 whole entry, looked up): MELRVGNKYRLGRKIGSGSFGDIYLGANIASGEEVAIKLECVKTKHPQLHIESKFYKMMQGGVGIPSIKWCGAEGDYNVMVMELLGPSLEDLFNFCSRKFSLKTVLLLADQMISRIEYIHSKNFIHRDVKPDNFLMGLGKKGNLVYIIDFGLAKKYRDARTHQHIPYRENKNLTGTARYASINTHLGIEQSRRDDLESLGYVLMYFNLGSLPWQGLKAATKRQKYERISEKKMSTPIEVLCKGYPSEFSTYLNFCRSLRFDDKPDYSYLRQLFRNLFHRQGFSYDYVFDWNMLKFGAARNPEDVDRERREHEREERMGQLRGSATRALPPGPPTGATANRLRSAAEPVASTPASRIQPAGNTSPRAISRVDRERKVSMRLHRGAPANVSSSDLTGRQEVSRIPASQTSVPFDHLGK
MLTK (human), sequence (Q9NYL2 whole entry, looked up): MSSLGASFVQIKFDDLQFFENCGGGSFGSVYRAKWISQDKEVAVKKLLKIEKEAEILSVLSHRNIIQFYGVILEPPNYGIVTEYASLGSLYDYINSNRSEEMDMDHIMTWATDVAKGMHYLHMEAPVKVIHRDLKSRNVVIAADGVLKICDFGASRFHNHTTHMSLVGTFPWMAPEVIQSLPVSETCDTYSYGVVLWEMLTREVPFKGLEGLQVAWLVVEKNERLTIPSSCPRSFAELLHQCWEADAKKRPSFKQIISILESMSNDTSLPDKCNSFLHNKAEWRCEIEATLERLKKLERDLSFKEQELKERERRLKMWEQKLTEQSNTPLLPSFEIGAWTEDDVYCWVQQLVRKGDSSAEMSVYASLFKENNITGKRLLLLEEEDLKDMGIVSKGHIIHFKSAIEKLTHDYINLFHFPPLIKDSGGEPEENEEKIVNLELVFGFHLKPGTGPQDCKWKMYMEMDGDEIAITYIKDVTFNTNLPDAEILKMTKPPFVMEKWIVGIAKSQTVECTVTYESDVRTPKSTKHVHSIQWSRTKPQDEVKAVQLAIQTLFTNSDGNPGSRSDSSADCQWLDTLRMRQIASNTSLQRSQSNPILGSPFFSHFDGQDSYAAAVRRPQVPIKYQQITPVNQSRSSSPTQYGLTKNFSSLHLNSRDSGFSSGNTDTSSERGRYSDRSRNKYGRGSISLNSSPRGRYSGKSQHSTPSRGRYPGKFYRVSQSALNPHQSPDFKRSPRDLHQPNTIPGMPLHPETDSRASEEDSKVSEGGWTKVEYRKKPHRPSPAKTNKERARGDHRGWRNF
PNCK (human), sequence (Q6P2M8 whole entry, looked up): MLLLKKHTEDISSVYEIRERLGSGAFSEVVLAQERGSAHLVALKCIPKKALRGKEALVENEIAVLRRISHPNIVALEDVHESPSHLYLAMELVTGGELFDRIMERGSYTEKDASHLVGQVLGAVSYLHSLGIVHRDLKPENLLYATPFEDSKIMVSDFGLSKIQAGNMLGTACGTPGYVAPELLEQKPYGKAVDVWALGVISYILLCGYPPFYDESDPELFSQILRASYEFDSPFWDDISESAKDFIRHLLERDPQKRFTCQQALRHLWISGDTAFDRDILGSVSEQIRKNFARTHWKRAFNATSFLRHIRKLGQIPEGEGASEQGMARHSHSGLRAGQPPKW
DSTYK (human), sequence (Q6XUX3 whole entry, looked up): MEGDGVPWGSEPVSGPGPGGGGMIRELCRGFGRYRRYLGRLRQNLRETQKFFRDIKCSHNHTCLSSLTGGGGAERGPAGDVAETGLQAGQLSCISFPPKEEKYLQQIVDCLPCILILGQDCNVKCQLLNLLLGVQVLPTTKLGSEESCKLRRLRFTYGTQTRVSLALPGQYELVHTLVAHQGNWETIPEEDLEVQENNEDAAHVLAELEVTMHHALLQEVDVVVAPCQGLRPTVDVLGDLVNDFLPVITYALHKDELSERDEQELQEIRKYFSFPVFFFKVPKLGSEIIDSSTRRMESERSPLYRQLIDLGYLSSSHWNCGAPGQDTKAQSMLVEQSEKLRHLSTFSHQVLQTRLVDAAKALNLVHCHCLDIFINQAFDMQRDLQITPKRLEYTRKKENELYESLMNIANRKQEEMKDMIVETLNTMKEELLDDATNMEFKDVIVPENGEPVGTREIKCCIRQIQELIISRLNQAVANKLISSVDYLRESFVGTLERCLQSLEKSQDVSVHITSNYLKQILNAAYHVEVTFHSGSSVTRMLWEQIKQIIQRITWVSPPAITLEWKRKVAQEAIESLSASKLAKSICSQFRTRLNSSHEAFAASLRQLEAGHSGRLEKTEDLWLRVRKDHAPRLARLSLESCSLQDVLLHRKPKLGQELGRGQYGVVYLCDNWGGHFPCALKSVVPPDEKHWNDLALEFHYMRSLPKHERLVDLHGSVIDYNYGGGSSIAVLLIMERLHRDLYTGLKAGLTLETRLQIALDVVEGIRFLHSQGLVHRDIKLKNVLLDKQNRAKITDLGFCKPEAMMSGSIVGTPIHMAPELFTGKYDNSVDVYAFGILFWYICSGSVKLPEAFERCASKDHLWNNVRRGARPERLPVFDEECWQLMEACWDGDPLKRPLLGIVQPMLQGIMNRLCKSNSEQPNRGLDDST
KIT (human), sequence (P10721 whole entry, looked up): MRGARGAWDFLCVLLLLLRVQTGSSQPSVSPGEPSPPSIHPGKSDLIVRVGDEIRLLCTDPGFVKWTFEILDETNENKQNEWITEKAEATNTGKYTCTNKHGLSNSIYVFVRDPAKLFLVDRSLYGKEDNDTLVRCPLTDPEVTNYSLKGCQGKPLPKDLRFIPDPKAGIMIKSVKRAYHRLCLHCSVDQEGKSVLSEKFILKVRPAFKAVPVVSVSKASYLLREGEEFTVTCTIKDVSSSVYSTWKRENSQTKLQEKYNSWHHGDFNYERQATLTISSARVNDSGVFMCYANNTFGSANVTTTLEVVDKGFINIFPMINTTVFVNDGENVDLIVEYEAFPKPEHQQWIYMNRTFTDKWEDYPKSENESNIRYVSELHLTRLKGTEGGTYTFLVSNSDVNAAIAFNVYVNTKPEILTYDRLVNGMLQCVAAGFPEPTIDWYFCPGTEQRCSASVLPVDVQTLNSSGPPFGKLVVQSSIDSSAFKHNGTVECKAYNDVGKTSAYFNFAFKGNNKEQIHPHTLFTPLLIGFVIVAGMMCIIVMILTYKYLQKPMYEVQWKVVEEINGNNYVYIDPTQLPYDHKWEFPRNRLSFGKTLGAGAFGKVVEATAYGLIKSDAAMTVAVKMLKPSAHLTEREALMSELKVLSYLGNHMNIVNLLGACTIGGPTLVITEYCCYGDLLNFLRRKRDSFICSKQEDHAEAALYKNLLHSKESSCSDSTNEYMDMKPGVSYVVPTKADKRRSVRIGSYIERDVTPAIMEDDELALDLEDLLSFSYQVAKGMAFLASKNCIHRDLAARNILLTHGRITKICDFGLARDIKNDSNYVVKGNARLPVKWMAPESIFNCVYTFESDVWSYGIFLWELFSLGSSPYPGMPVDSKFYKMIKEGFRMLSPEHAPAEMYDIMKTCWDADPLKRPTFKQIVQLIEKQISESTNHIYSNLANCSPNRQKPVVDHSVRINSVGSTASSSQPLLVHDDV

SMILES: CCc1nc(-c2ccc(OC)cc2)[nH]c1-c1ccncc1
- residual activity (ERBB4 (human)): 86.8%
- residual activity (KIT (human)): 92.7%
- residual activity (PAK3 (human)): 103%
- residual activity (FGFR3 (human)): 99.8%
- residual activity (CSNK1E (human)): 95%
- residual activity (PRKCD (human)): 98.5%
- residual activity (TAOK2 (human)): 98.2%
- residual activity (EPHB4 (human)): 90.3%
- residual activity (ROS1 (human)): 91.8%
- residual activity (CDK6 CCND1 (human); ATP 10 µM): 101%
- residual activity (MAPKAPK2 (human)): 100%
- residual activity (DDR2 (human)): 96.1%
- residual activity (EPHA1 (human)): 116%
- residual activity (CLK3 (human)): 95.6%
- residual activity (MAP3K8 (human)): 95%
- residual activity (PHKG2 (human)): 111%
- residual activity (NEK3 (human)): 92.4%
- residual activity (DYRK2 (human)): 85.8%
- residual activity (CAMK1G (human)): 98%
- residual activity (MST4 (human)): 106%
- residual activity (DSTYK (human)): 99.6%
- residual activity (MLTK (human)): 106%
- residual activity (NLK (human)): 103%
- residual activity (NTRK3 (human)): 103%
- residual activity (MERTK (human)): 92.1%
- residual activity (HIPK1 (human)): 97.7%
- residual activity (SYK (human)): 98.7%
- residual activity (PAK6 (human)): 102%
- residual activity (CSNK1G1 (human)): 101%
- residual activity (PLK1 (human)): 103%
- residual activity (FGFR4 (human)): 95.9%
- residual activity (NEK11 (human)): 77.4%
- residual activity (PNCK (human)): 102%
- residual activity (MAPK1 (human)): 97.2%
- residual activity (STK11 (human)): 89.5%
- residual activity (HIPK3 (human)): 106%
- residual activity (PRKCE (human)): 101%
- residual activity (CSNK2A1 (human)): 95.3%
- residual activity (YES1 (human)): 95.1%
- residual activity (JAK2 JH1 JH2 (human)): 96.7%
- residual activity (BRSK2 (human)): 105%
- residual activity (CSNK1D (human); ATP 10 µM): 95.1%

SMILES: O=c1[nH]c2ccccc2n1C1CCN(Cc2ccc(-c3nc4cc5[nH]cnc5cc4nc3-c3ccccc3)cc2)CC1
- residual activity (ERBB4 (human)): 105%
- residual activity (KIT (human)): 91.7%
- residual activity (PAK3 (human)): 104%
- residual activity (FGFR3 (human)): 101%
- residual activity (CSNK1E (human)): 107%
- residual activity (PRKCD (human)): 98.8%
- residual activity (TAOK2 (human)): 98.8%
- residual activity (EPHB4 (human)): 96.4%
- residual activity (ROS1 (human)): 101%
- residual activity (CDK6 CCND1 (human)): 105%
- residual activity (MAPKAPK2 (human)): 98.7%
- residual activity (DDR2 (human)): 99.2%
- residual activity (EPHA1 (human)): 84.4%
- residual activity (CLK3 (human)): 111%
- residual activity (MAP3K8 (human)): 95.2%
- residual activity (PHKG2 (human)): 104%
- residual activity (NEK3 (human)): 97.2%
- residual activity (DYRK2 (human)): 107%
- residual activity (CAMK1G (human)): 101%
- residual activity (MST4 (human)): 102%
- residual activity (DSTYK (human)): 104%
- residual activity (MLTK (human)): 106%
- residual activity (NLK (human)): 104%
- residual activity (NTRK3 (human)): 116%
- residual activity (MERTK (human)): 96.2%
- residual activity (HIPK1 (human)): 106%
- residual activity (SYK (human)): 97.9%
- residual activity (PAK6 (human)): 109%
- residual activity (CSNK1G1 (human)): 99.3%
- residual activity (PLK1 (human)): 109%
- residual activity (FGFR4 (human)): 97.2%
- residual activity (NEK11 (human)): 86.4%
- residual activity (PNCK (human)): 95.5%
- residual activity (MAPK1 (human)): 112%
- residual activity (STK11 (human)): 95.6%
- residual activity (HIPK3 (human)): 102%
- residual activity (PRKCE (human)): 109%
- residual activity (CSNK2A1 (human)): 94.3%
- residual activity (YES1 (human)): 90.8%
- residual activity (JAK2 JH1 JH2 (human)): 104%
- residual activity (BRSK2 (human)): 106%
- residual activity (CSNK1D (human)): 100%

SMILES: Nc1ncnc2c1cnn2-c1ccccc1
- residual activity (ERBB4 (human)): 101%
- residual activity (KIT (human)): 89.5%
- residual activity (PAK3 (human)): 98.8%
- residual activity (FGFR3 (human)): 97.9%
- residual activity (CSNK1E (human)): 81.5%
- residual activity (PRKCD (human)): 93%
- residual activity (TAOK2 (human)): 93%
- residual activity (EPHB4 (human)): 103%
- residual activity (ROS1 (human)): 94.2%
- residual activity (CDK6 CCND1 (human); ATP 10 µM): 94.7%
- residual activity (MAPKAPK2 (human)): 98.6%
- residual activity (DDR2 (human)): 92.3%
- residual activity (EPHA1 (human)): 92.4%
- residual activity (CLK3 (human)): 96.1%
- residual activity (MAP3K8 (human)): 98.6%
- residual activity (PHKG2 (human)): 94.1%
- residual activity (NEK3 (human)): 93.5%
- residual activity (DYRK2 (human)): 95.6%
- residual activity (CAMK1G (human)): 102%
- residual activity (MST4 (human)): 82.2%
- residual activity (DSTYK (human)): 94.5%
- residual activity (MLTK (human)): 92.5%
- residual activity (NLK (human)): 92.5%
- residual activity (NTRK3 (human)): 93.6%
- residual activity (MERTK (human)): 94.3%
- residual activity (HIPK1 (human)): 98.4%
- residual activity (SYK (human)): 96%
- residual activity (PAK6 (human)): 100%
- residual activity (CSNK1G1 (human)): 94.8%
- residual activity (PLK1 (human)): 98.9%
- residual activity (FGFR4 (human)): 94.8%
- residual activity (NEK11 (human)): 107%
- residual activity (PNCK (human)): 97.5%
- residual activity (MAPK1 (human)): 85.4%
- residual activity (STK11 (human)): 93.9%
- residual activity (HIPK3 (human)): 97.6%
- residual activity (PRKCE (human)): 98.3%
- residual activity (CSNK2A1 (human)): 94.4%
- residual activity (YES1 (human)): 93.7%
- residual activity (JAK2 JH1 JH2 (human)): 91.6%
- residual activity (BRSK2 (human)): 95.3%
- residual activity (CSNK1D (human); ATP 10 µM): 79.5%
